Key:
A549 = test: Antiproliferative activity against human A549 cells assessed as cell viability measured after 48 hrs incubation by MTT assay; assay type: functional, cell-based; settings: A549, 48 h
HepG2 = test: Antiproliferative activity against human HepG2 cells assessed as cell viability measured after 48 hrs incubation by MTT assay; assay type: functional, cell-based; settings: HepG2, 48 h
MCF7 = test: Antiproliferative activity against human MCF7 cells assessed as cell viability measured after 48 hrs incubation by MTT assay; assay type: functional, cell-based; settings: MCF7, 48 h
[1] = Antiproliferative activity against human MCF-10A cells assessed as cell viability measured after 48 hrs incubation by MTT assay; assay type: toxicity, cell-based
[2] = Selectivity index, ratio of IC50 for human MCF-10A cells to IC50 for human MCF7 cells; assay type: toxicity; settings: MCF-10A cells and MCF7 cells, read-out: Selectivity Index

Structure (SMILES)	IC50 (A549)	IC50 (HepG2)	IC50 (MCF7)	IC50 at 48 h [1]	selectivity ratio [2]
CC(C)[C@@H](C)/C=C/[C@@H](C)[C@H]1CC[C@@H]2[C@]1(C)CC[C@H]1[C@]23C=C[C@]2(C[C@@H](OC(=O)NCCNC(=O)CN4C(=O)S/C(=C\c5ccc(Br)cc5)C4=O)CC[C@]12C)OO3	7.9 µM	7.34 µM	4.39 µM	45.3 µM	10.3
CC(C)[C@@H](C)/C=C/[C@@H](C)[C@H]1CC[C@@H]2[C@]1(C)CC[C@H]1[C@]23C=C[C@]2(C[C@@H](OC(=O)NCCNC(=O)CN4C(=O)S/C(=C\c5ccccc5)C4=O)CC[C@]12C)OO3	11.4 µM	7.95 µM	6.8 µM	41.6 µM	6.12
CC(C)[C@@H](C)/C=C/[C@@H](C)[C@H]1CC[C@H]2C3=CC=C4C[C@@H](OC(=O)NCCNC(=O)CN5C(=O)S/C(=C\c6cccc7ccccc67)C5=O)CC[C@]4(C)[C@H]3CC[C@]12C	> 80 µM	> 80 µM	> 80 µM		
CC(C)[C@@H](C)/C=C/[C@@H](C)[C@H]1CC[C@@H]2[C@]1(C)CC[C@H]1[C@]23C=C[C@]2(C[C@@H](OC(=O)N4CCN(C(=O)CN5C(=O)S/C(=C\c6ccsc6)C5=O)CC4)CC[C@]12C)OO3	8.14 µM	16.8 µM	13.6 µM		
CC(C)[C@@H](C)/C=C/[C@@H](C)[C@H]1CC[C@@H]2[C@]1(C)CC[C@H]1[C@]23C=C[C@]2(C[C@@H](OC(=O)CN4C(=O)S/C(=C/c5cccs5)C4=O)CC[C@]12C)OO3	7.4 µM	17.3 µM	16.6 µM		
COc1cccc(/C=C2/SC(=O)N(CC(=O)O[C@H]3CC[C@]4(C)[C@H]5CC[C@]6(C)[C@@H]([C@H](C)/C=C/[C@H](C)C(C)C)CC[C@H]6[C@@]56C=C[C@]4(C3)OO6)C2=O)c1	10.8 µM	15.3 µM	17 µM		
CC(C)/C=C1\SC(=O)N(CC(=O)N2CCN(C(=O)O[C@H]3CC[C@]4(C)[C@H]5CC[C@]6(C)[C@@H]([C@H](C)/C=C/[C@H](C)C(C)C)CC[C@H]6[C@@]56C=C[C@]4(C3)OO6)CC2)C1=O	7.69 µM	10.5 µM	8.89 µM		
CC(C)[C@@H](C)/C=C/[C@@H](C)[C@H]1CC[C@@H]2[C@]1(C)CC[C@H]1[C@]23C=C[C@]2(C[C@@H](OC(=O)CN4C(=O)S/C(=C/c5ccc(F)c(Cl)c5)C4=O)CC[C@]12C)OO3	7.92 µM	15.8 µM	11.1 µM		
CC(C)[C@@H](C)/C=C/[C@@H](C)[C@H]1CC[C@@H]2[C@]1(C)CC[C@H]1[C@]23C=C[C@]2(C[C@@H](OC(=O)CN4C(=O)S/C(=C/c5ccc(F)cc5)C4=O)CC[C@]12C)OO3	11.7 µM	14.7 µM	16.1 µM		
CC(C)[C@@H](C)/C=C/[C@@H](C)[C@H]1CC[C@@H]2[C@]1(C)CC[C@H]1[C@]23C=C[C@]2(C[C@@H](OC(=O)CN4C(=O)S/C(=C/c5ccc(Cl)cc5)C4=O)CC[C@]12C)OO3	9.18 µM	13.5 µM	9.92 µM		
CC(C)[C@@H](C)/C=C/[C@@H](C)[C@H]1CC[C@@H]2[C@]1(C)CC[C@H]1[C@]23C=C[C@]2(C[C@@H](OC(=O)N4CCN(C(=O)CN5C(=O)S/C(=C\c6ccc(F)c(Cl)c6)C5=O)CC4)CC[C@]12C)OO3	12.5 µM	13.7 µM	15.2 µM		
COc1ccc(/C=C2/SC(=O)N(CC(=O)O[C@H]3CC[C@]4(C)[C@H]5CC[C@]6(C)[C@@H]([C@H](C)/C=C/[C@H](C)C(C)C)CC[C@H]6[C@@]56C=C[C@]4(C3)OO6)C2=O)c(OC)c1OC	9.1 µM	10.9 µM	9.66 µM		
CC(C)[C@@H](C)/C=C/[C@@H](C)[C@H]1CC[C@@H]2[C@]1(C)CC[C@H]1[C@]23C=C[C@]2(C[C@@H](OC(=O)CN4C(=O)S/C(=C/c5ccccc5F)C4=O)CC[C@]12C)OO3	11.4 µM	12.5 µM	14.4 µM		
